Laboratory results reported in patent US10517889B2, “Modulators of SMAD7 expression” (Ionis Pharmaceuticals, Inc., priority 2017, dated 2019).
Strand notation (5' to 3'): a small letter for the sugar, then the base; units joined by * are phosphorothioate-linked, units joined directly phosphodiester-linked; [ ] holds rarer units or linkages, { } end groups; capitals alone tell only the bases. e = 2'-O-(2-methoxyethyl) (MOE); [5mC] = 5-methylcytosine; d = 2'-deoxy (DNA)

Tests used:
human SMAD7 mRNA [1] = experiment: Antisense inhibition of human SMAD7 mRNA expression in Hep3B cells by 5-10-5 MOE gapmers, single concentration, electroporation, RT-PCR (Example 1, Study 1 and 2); assay type: cell-based; details: for % Inhibition of SMAD7 mRNA: electroporation with 15,000 nM antisense oligonucleotide (Study 2); for % Inhibition: Study 2, electroporation with 15,000 nM antisense oligonucleotide
Procedure, shortened: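 Hep3B cells (20,000/well) electroporated with 5-10-5 MOE gapmer at 5,000 nM or 15,000 nM for approximately 24 h. SMAD7 mRNA quantified by real-time PCR with primer probe set RTS5062 and normalized to RIBOGREEN total RNA. Values are percent inhibition relative to untreated controls.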

human SMAD7 mRNA [2] = experiment: Dose-dependent inhibition of human SMAD7 mRNA expression in Hep3B cells (Example 3, Study 1 and 2); assay type: cell-based; details: electroporation; for % inhibition of SMAD7 mRNA expression: approximately 16 hours; for IC50: Study 1 (312.5-20000 nM)
Procedure, shortened: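 Hep3B cells, 20,000 per well, electroporated with antisense oligonucleotide at 0.31, 1.25, 5.00 or 20.00 μM (first series) or 0.74, 2.22, 6.67 or 20.00 μM (second series). After ~16 h, SMAD7 mRNA measured by RT-qPCR (RTS5062), normalised to RIBOGREEN total RNA. Percent inhibition vs untreated cells; IC50 derived.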

[3] = 5-10-5 MOE gapmers targeting SEQ ID NO: 1 and 2
[4] = electroporation, 15,000 nM antisense oligonucleotide (Study 2), 5-10-5 MOE gapmers targeting SEQ ID NO: 1 and 2
[5] = 312.5 nM, Study 1, relative to untreated control cells
[6] = electroporation, 15,000 nM, approximately 24 hours, relative to untreated control cells, gapmers targeting SEQ ID NO: 1 and 2

Substance | % Inhibition of SMAD7 mRNA (human SMAD7 mRNA [1]; [3]) [%] | % inhibition of SMAD7 mRNA expression (human SMAD7 mRNA [1]; [4]) [%] | % inhibition of SMAD7 mRNA expression (human SMAD7 mRNA [2]; [5]) [%] | % inhibition of SMAD7 mRNA expression (human SMAD7 mRNA [2]; 1250.0 nM, Study 1) [%] | % inhibition of SMAD7 mRNA expression (human SMAD7 mRNA [2]; 5000.0 nM, Study 1) [%] | % inhibition of SMAD7 mRNA expression (human SMAD7 mRNA [2]; 20000.0 nM, Study 1) [%] | IC50 (human SMAD7 mRNA [2]) [µM] | % inhibition of SMAD7 mRNA expression (human SMAD7 mRNA [1]; [6]) [%] | % Inhibition (human SMAD7 mRNA [1]; [3]) [%]
278478 (antisense eA*e[5mC]*eA*eT*eG*dA*d[5mC]*d[5mC]*dT*d[5mC]*d[5mC]*dG*d[5mC]*dA*d[5mC]*eA*e[5mC]*e[5mC]*eA*eT) [compound 278478] | 54 | 18 | 0 | 9 | 19 | 22 | > 20 |  | 
771869 (antisense eA*eG*e[5mC]*e[5mC]*eA*dA*dG*dT*dG*dT*d[5mC]*d[5mC]*dA*dT*d[5mC]*eA*eA*eG*e[5mC]*eA) [compound 771869] |  |  | 10 | 0 | 24 | 43 | > 20 | 62 | 
771786 (antisense eA*eG*e[5mC]*eT*e[5mC]*dA*dA*dA*d[5mC]*dT*dT*dT*dG*dA*dA*eG*e[5mC]*e[5mC]*eT*eT) [compound 771786] |  | 56 | 2 | 0 | 53 | 40 | > 20 |  | 
771717 (antisense eT*e[5mC]*e[5mC]*e[5mC]*eA*dT*d[5mC]*dT*dA*dT*d[5mC]*dG*dA*dA*dT*e[5mC]*eA*e[5mC]*e[5mC]*e[5mC]) [compound 771717] |  |  | 2 | 0 | 0 | 30 | > 20 | 57 | 
771403 (antisense eG*eA*eA*e[5mC]*eA*dT*dG*dA*d[5mC]*d[5mC]*dT*d[5mC]*d[5mC]*dG*d[5mC]*eA*e[5mC]*eA*e[5mC]*e[5mC]) [compound 771403] |  | 62 | 5 | 4 | 25 | 35 | > 20 |  | 
771704 (antisense e[5mC]*eA*eG*eG*eA*dG*dG*dG*dT*dA*dT*dG*d[5mC]*dA*d[5mC]*eA*e[5mC]*eT*e[5mC]*eT) [compound 771704] | 55 | 32 | 14 | 19 | 30 | 54 | > 20 |  | 
771464 (antisense eG*eA*eG*eA*eG*dG*dG*d[5mC]*dT*d[5mC]*d[5mC]*dT*dG*dG*dA*e[5mC]*eA*e[5mC]*eA*eG) [compound 771464] |  |  | 11 | 8 | 21 | 50 | > 20 |  | 55
771570 (antisense eT*eG*eG*eG*eA*d[5mC]*dT*dG*d[5mC]*dA*dA*dA*d[5mC]*d[5mC]*dT*e[5mC]*eT*e[5mC]*eT*eG) [compound 771570] |  | 60 | 0 | 0 | 43 | 48 | > 20 |  | 
771793 (antisense eA*eA*eG*eT*e[5mC]*d[5mC]*d[5mC]*dT*dA*dA*d[5mC]*dG*dA*d[5mC]*d[5mC]*eA*eG*eG*e[5mC]*e[5mC]) [compound 771793] |  | 58 | 16 | 33 | 38 | 57 | 12 |  | 
771944 (antisense eG*eG*eT*eA*eA*dT*dT*dT*dT*d[5mC]*d[5mC]*dT*d[5mC]*dA*dA*e[5mC]*eA*eG*eG*e[5mC]) [compound 771944] | 50 | 8 | 0 | 34 | 35 | 48 | > 20 |  | 
771820 (antisense eG*eG*eT*e[5mC]*eA*dA*dA*d[5mC]*dT*dT*dG*dT*dG*dG*dT*eA*eA*eA*eA*eT) [compound 771820] |  |  | 3 | 3 | 7 | 7 | > 20 |  | 29
771742 (antisense eA*eG*eA*e[5mC]*eA*dG*dA*dT*d[5mC]*dT*d[5mC]*dT*dG*dA*dA*eG*eT*e[5mC]*eA*eG) [compound 771742] |  |  | 0 | 0 | 0 | 23 | > 20 |  | 44
771776 (antisense e[5mC]*eT*e[5mC]*eA*eG*d[5mC]*dA*dA*dG*d[5mC]*dT*d[5mC]*dA*dG*dT*eT*e[5mC]*e[5mC]*eT*eG) [compound 771776] | 54 | 38 | 10 | 13 | 36 | 67 | 9 |  | 
771474 (antisense eG*e[5mC]*eA*eG*e[5mC]*d[5mC]*dG*dA*dT*dT*dT*dT*dG*d[5mC]*dT*e[5mC]*e[5mC]*eG*e[5mC]*eA) [compound 771474] |  | 56 | 3 | 4 | 21 | 52 | 17 |  | 
771773 (antisense eT*e[5mC]*eT*eT*eT*dT*d[5mC]*dG*d[5mC]*dA*dT*d[5mC]*d[5mC]*dT*d[5mC]*eA*eG*eG*eA*eA) [compound 771773] |  |  | 0 | 0 | 0 | 42 | > 20 | 57 | 
771825 (antisense e[5mC]*eT*e[5mC]*eT*e[5mC]*dA*dT*dT*dT*d[5mC]*dT*dG*dG*dA*dA*e[5mC]*e[5mC]*e[5mC]*eA*e[5mC]) [compound 771825] |  | 76 | 15 | 29 | 17 | 66 | 15 |  | 
771885 (antisense e[5mC]*eA*eA*eG*eT*d[5mC]*dT*d[5mC]*dT*dT*dA*d[5mC]*d[5mC]*dT*d[5mC]*eA*e[5mC]*e[5mC]*e[5mC]*eA) [compound 771885] |  |  | 0 | 4 | 20 | 45 | > 20 | 60 | 
771573 (antisense eG*e[5mC]*eT*eT*eG*dG*dG*dA*d[5mC]*dT*dG*d[5mC]*dA*dA*dA*e[5mC]*e[5mC]*eT*e[5mC]*eT) [compound 771573] |  |  | 0 | 5 | 24 | 56 | 18 | 65 | 
771399 (antisense eG*e[5mC]*e[5mC]*e[5mC]*eG*dG*dG*d[5mC]*dA*dG*dG*dA*dG*d[5mC]*dG*eG*e[5mC]*eG*eG*e[5mC]) [compound 771399] |  |  | 0 | 6 | 26 | 53 | > 20 |  | 33
771799 (antisense e[5mC]*eT*eT*e[5mC]*e[5mC]*dA*dA*d[5mC]*dA*d[5mC]*dA*dT*dG*d[5mC]*dT*e[5mC]*eT*eG*e[5mC]*eA) [compound 771799] |  |  | 0 | 8 | 28 | 48 | > 20 |  | 57
771509 (antisense eG*eG*e[5mC]*e[5mC]*eT*dG*d[5mC]*dT*d[5mC]*dA*dG*d[5mC]*dT*d[5mC]*dA*e[5mC]*eG*e[5mC]*eT*e[5mC]) [compound 771509] |  |  | 0 | 0 | 13 | 47 | > 20 | 65 | 
